Results published in patent publication US7476511B2, “Method of detecting and analyzing paclitaxel-mimetic compounds” (priority 2001, dated 2009).
Read-outs that look alike come from different tables or passages of the source. Blank lines part the entries; values can stand above or below the compound they belong to.

Tests used:
[1] = test system: paclitaxel binding site of microtubules; experiment: Binding of Flutax-2 to cross-linked microtubules by fluorescence anisotropy; parameters: species or system bovine
Experimental: The intensity of fluorescence of Flutax-2 changes very little with the binding to microtubules. There is a small change in the excitation maximum from 494 nm to 495 nm (isosbestic point at 500 nm ) and a blue shift in emission from 523 nm to 520 nm (not shown here; isosbestic point at 525 nm; Diaz, J. F. et al.). […] The excitation anisotropy spectrum of a 50 nM solution of microtubule sites/Flutax-2 was compared with the spectrum of a similar solution in which the binding sites were blocked by an excess of paclitaxel and of free Flutax-2. […] The anisotropy values determined for the 495 nm band (emission 520 nm; GAB buffer containing glycerol, 25° C.) were: free Flutax-2 (50 nm ), rmin=0.055; in the presence of microtubules blocked with paclitaxel, r=0.060; Flutax-2 specifically bound to the microtubules, rmax=0.29 (the last was determined by valuation of 50 nm Flutax-2 with growing concentrations of microtubules). These changes are consistent with a strong immobilisation of the fluorophore by the binding. […]
Tubulin from bovine brain was purified and stored, and its concentration was measured as has been described (Andreu, J. M. et al.). […]
Fluorescence spectra were obtained corrected with a Fluorolog-3-221 photon count instrument (Jobin Yvon-Spex, Longlumean, France), with an emission bandwidth of 5 nm and excitation of […] at 25° C. […] The multiple measurements of anisotropy were made with a PolarStar microplate reader (BMG Labtechnologies, Offenburg, Germany) at 25° C. The solutions were excited with 200 pulses of vertically polarised light (band-pass filter 485-P, 480-492 nm ) and the emission was simultaneously analysed with vertical and horizontal polarisation filters (band-pass 520-P, 515-550 nm ). […] The values of well blanks with microtubules and without Flutex-2 were subtracted from the values of fluorescence intensity (the blanks typically represented less than 4% of the measurement). […]

[2] = test system: paclitaxel binding site of microtubules; experiment: Displacement of 3H-paclitaxel from microtubules by sedimentation and scintillation count; settings: 1 mg mL^−1 bovine serum albumin present
Excerpt: In a series of control measurements, the displacement of the interaction of ^3H-paclitaxel with microtubules by baccatine III and Flutax-2 was evidenced by sedimentation and scintillation count. […] This confirmed that baccatine III is recognised by the paclitaxel binding site of microtubules. Nevertheless, with the aim of having the majority of the radioactive ^3H-paclitaxel tracer in solution, instead of being absorbed into the polycarbonate tube of the table-top ultracentrifuge, it was necessary to include 1 mg mL^−1 of bovine serum albumin, which binds the paclitaxel (keeping it available for interaction with the microtubules) and also the Flutax-2 (decreasing its apparent affinity). These adsorption processes make it impossible to have any direct rigorous measurement of the affinity of the binding of paclitaxel to microtubules in our hands, and therefore of the affinity of its competitors using paclitaxel as a reference ligand in these diluted tests. The additional disadvantages of the binding tests of ^3H-paclitaxel in comparison with the homogeneous test of the anisotropy of fluorescent taxoid are the operations of centrifugation, separation and radioactive measurement that are required. […]

[3] = test system: cross-linked microtubules; experiment: Concentration of taxoid binding sites by sedimentation and spectrophotometric measurement of Flutax-2; parameters: species or system bovine; settings: 5 μM Flutax-2, GAB-GDP buffer, 25° C.
Experimental: Their concentration of total tubulin was measured after diluting them in 1% SDS using an extinction coefficient of 107,000 M^−1 cm^−1 at 275 nm (Diaz, J. F. and Andreu, J. M.). […] The concentration of binding sites of taxoid was determined by addition of growing concentrations of microtubules cross-linked to 5 μM Flutax-2 in the GAB-GDP buffer, sedimentation (Diaz, J. F. et al., 50,000 rpm in a Beckman TLA 120 rotor at 25° C.) and spectrophotometric measurement of Flutax-2. It was observed that the preparations of cross-linked microtubules bound 0.75±0.05 of Flutax-2 per total tubulin (in other words, a minimum of 95% of the bound tubulin was active binding this ligand). The control measurements using ^3H-paclitaxel and liquid scintillation gave values similar to Flutax-2. Once the anisotropy values of Flutax bound to microtubule and free were determined, the number of sites could also be determined by valuation of diluted solutions of microtubules cross-linked with Flutax-2 (see further below). The concentration of binding sites of taxoids of the preparations of cross-linked microtubules turned out to be stable in liquid nitrogen, decaying at speeds between 0.02 and 0.05 day^−1 at 4° C. (mean lives of five and two weeks respectively). The cross-linked microtubules were used within one average life starting from the preparation.

[4] = Experimental: Standard concentrated solutions were prepared and were kept at −20° C. in a dry atmosphere. The paclitaxel (from the National Cancer Institute, Bethesda, Md.) was measured spectroscopically at 273 nm following dilution in methanol, using an extinction coefficient of 1,700 M^−1 cm^−1 (Diaz, J. F. and Andreu, J. M.) ^3H-paclitaxel (4 Ci mmol^−1) was obtained from Moravek Biochemicals (Brea, Calif.), Docetaxel (Taxotere) was supplied by Rhône-Poulenc Rorer (Antony, France). […] The methyl ester of the C-13 side chain of paclitaxel was supplied by E. Baloglu and D. G. I. Kingston of the Virginia Polytechnic Institute (Blacksburg, Va.).
[5] = test system: paclitaxel binding site of microtubules; experiment: Competition test: displacement of Flutax-2 from microtubules, fluorescence anisotropy in microplate; parameters: species or system bovine; settings: for displacement of Flutax-2 / inhibition of the anisotropy of microtubule Flutax-2 / equilibrium binding constant to microtubules (numerical analysis of displacement isotherms): 50 nM Flutax-2/50 nM microtubule sites; for equilibrium binding constant to microtubules (numerical analysis of displacement isotherms): 25° C., mean of several determinations; for equilibrium constant K, best fit of competition isotherm (FIG. 2): GAB-GDP buffer at 25° C., 50 nM Flutax-2, 50 nM sites
Experimental: Using Flutax-2 as a reference probe for the binding site to paclitaxel, the binding of other non-fluorescent ligands which displace Flutax-2 from the microtubules (see FIG. 1) can easily be measured by the changes in […] fluorescence properties in a competition test. The change of fluorescence anisotropy, which was analysed in 96-well plates with a microplate reader, was used. […] Baccatine III is equivalent to the taxane ring system, in which the group C-13 OH substitutes the paclitaxel side chain (see chemical structures in FIG. 2). The C-13 side chain has previously been considered as an essential determinant for recognition of paclitaxel.
Tubulin from bovine brain was purified and stored, and its concentration was measured as has been described (Andreu, J. M. et al.). Prior to its use it was balanced in 10 mM sodium phosphate, 1 mM EGTA, 0.1 mM GTP, 3.5M glycerol pH 6.8, with a Sephadex G-25 gravity column used cold, and it was centrifuged cold for 10 min at 50,000 in a TLA 100.4 rotor (Beckman) cold. The 50 μM tubulin was made 6 mM in MgCl2 (in other words, glycerol assembly buffer GAB, final pH 6.5) and 1 mM GTP, it was assembled in microtubules at 37° C. and these were gently cross-linked with 20 mM glutaraldehyde, the reaction being stopped with NaBH4 as has been described (Diaz, J. F. et al.). […] The cross-linked microtubules were dialysed against GAB-0.1 mM nucleotide (GTP or GDP) for more than 16 h, cold, in dialysis cassettes (Pierce) and were conserved frozen drop by drop in liquid nitrogen, or at 4° C. with 0.05% of sodium azide. This conservation method for the cross-linked microtubules by means of dialysis against a conservation and cryopreservation buffer is claimed in the present invention.
These competitive measurements were made with the polarisation plate reader. A solution of known concentrations of binding sites of microtubule and Flutax-2, both close to 50 nM, in GAB-GDP buffer, was freshly prepared starting from the concentrated reserves of cross-linked microtubules and Flutax-2. It was dispensed in aliquots of 200 μL (final volume) at room temperature in 96-well plates (Costar cat. No. 3599, the wells at the edges were not used). […] The ligands to test were added in small volumes of DMSO (concentration of final DMSO 2% v/v) in order to make the desired duplicated concentrations. A check was also made that the paclitaxel was not adsorbed onto the plate during the test, using ^3H-paclitaxel and a scintillation counter. The wells without protein and without Flutax-2 were included for calibration and background measurements respectively (see anisotropy measurements, above). The plates were stirred by rotation for 10 minutes and were measured twice within 30-90 minutes following balancing at 25° C. in the microplate reader. The anisotropy data of Flutax-2 was calculated with the evaluation software (BMG) and was traced against the total concentration of the competitor.
With the aim of measuring the binding affinity of a ligand (L) which displaces the reference ligand Flutax-2 from its microtubule binding site (S), unitary stoichiometry was assumed, with the fractional binding of Flutax-2 starting from the anisotropy being determined as [F]b/[S]0=[F]0(r−rmin)/[S]0(rmax−rmin) and the following expressions were applied K(F)=[SF]/[S] [F] [9] K(B)=[SB]/[S] [B] [10] [F]=[F]0−[SF] [11] [L]=[L]0−[SL] [12]

SMILES: CC(=O)O[C@H]1C(=O)[C@]2(C)[C@@H](OC(=O)[C@H](C)NC(=O)c3ccc4c(c3)C(=O)OC43c4cc(F)c(O)cc4Oc4cc(O)c(F)cc43)C[C@H]3OC[C@@]3(OC(C)=O)[C@H]2[C@H](OC(=O)c2ccccc2)[C@]2(O)C[C@H](OC(=O)[C@H](O)[C@@H](NC(=O)c3ccccc3)c3ccccc3)C(C)=C1C2(C)C [Flutax-2, 7-O-[N-(2,7-difluoro-4′-fluoresceincarbonyl)-L-alanyl]paclitaxel]
equilibrium binding constant of Flutax-2 (FIG. 2 legend) ([1]; GAB-GDP buffer at 25° C.): 1.5e+08 M⁻¹ | equilibrium constant of the binding Kb (binding isotherm from change of anisotropy) ([1]; GAB-GDP buffer at 25° C.): 1.15e+08 M⁻¹ | apparent affinity compared with fluorescence anisotropy tests [2]: seven times lower | Flutax-2 bound per total tubulin [3]: 0.75±0.05

SMILES: CC(=O)O[C@H]1C(=O)[C@@]2(C)[C@H]([C@H](OC(=O)c3ccccc3)[C@]3(O)C[C@H](O)C(C)=C1C3(C)C)[C@]1(OC(C)=O)CO[C@@H]1C[C@@H]2O [baccatine III, Baccatine III]
solubility ([4]; pH 6.5): soluble at the concentrations used | displacement of Flutax-2 / inhibition of the anisotropy of microtubule Flutax-2 [5]: entirely inhibited | equilibrium binding constant to microtubules (numerical analysis of displacement isotherms) [5]: 1.5±0.5)×10^5 M^−1 | equilibrium constant K, best fit of competition isotherm (FIG. 2) [5]: 150000 M⁻¹ | total concentrations needed for inhibition relative to paclitaxel ([5]; entire inhibition of anisotropy): approximately 200 times

SMILES: COC(=O)C(O)C(NC(=O)c1ccccc1)c1ccccc1 (stereo not shown) [methyl ester of the C-13 side chain, methyl ester of the C-13 side chain of paclitaxel]
solubility [4]: ≥ 0.75 mM | displacement of Flutax-2 / inhibition of the anisotropy of microtubule Flutax-2 [5]: inactive | equilibrium binding constant to microtubules (numerical analysis of displacement isotherms) [5]: < 10^3 M^−1 | K of simulated low affinity binding (line through data, FIG. 2) ([5]; simulation, data similar to controls): 700 M⁻¹

Results, then the compound that gave them:

equilibrium binding constant to microtubules (numerical analysis of displacement isotherms) [5]: (6.0±2.3)×10^7 M^−1 | equilibrium constant K, best fit of competition isotherm (FIG. 2) [5]: 8e+07 M⁻¹ | ratio of affinities of docetaxel to paclitaxel ([5]; on the basis of the individual experiments): 2.7±0.3
SMILES: CC(=O)O[C@@]12CO[C@@H]1C[C@H](O)[C@@]1(C)C(=O)[C@H](O)C3=C(C)[C@@H](OC(=O)[C@H](O)[C@@H](NC(=O)OC(C)(C)C)c4ccccc4)C[C@@](O)([C@@H](OC(=O)c4ccccc4)[C@H]21)C3(C)C [docetaxel, Docetaxel]

cancellation of the binding of Flutax-2 to microtubules ([1]; 10 μM paclitaxel): entirely annulled | equilibrium binding constant to microtubules (numerical analysis of displacement isotherms) [5]: (3.7±1.5)×10^7 M^−1 | equilibrium constant K, best fit of competition isotherm (FIG. 2) [5]: 3.2e+07 M⁻¹
SMILES: CC(=O)O[C@H]1C(=O)[C@@]2(C)[C@H]([C@H](OC(=O)c3ccccc3)[C@]3(O)C[C@H](OC(=O)[C@H](O)[C@@H](NC(=O)c4ccccc4)c4ccccc4)C(C)=C1C3(C)C)[C@]1(OC(C)=O)CO[C@@H]1C[C@@H]2O [paclitaxel]
